# Reference: patent publication US10689367B2, “Triazole pyridyl compounds as agonists of the APJ receptor” (AMGEN INC., priority 2016, dated 2020)
# Biological target: human APJ receptor (Homo sapiens (Human), UniProt P35414)
# Test: [35S]GTPγS binding assay on membranes from CHO cells stably expressing human APJ receptor
# Format: biochemical
# Settings: membranes of CHO cells stably expressing human APJ receptor, read-out: Activity hAPJ SPA EC50 IP
# Protocol: The human APJ receptor was cloned by polymerase chain reaction and the gene encoding the receptor was subcloned in pFLAG-CMV™-3 expression vector (Sigma, Saint Louis, Mo. USA) in-house at Amgen. A GTPγS binding assay was performed on membranes prepared from CHO cells stably expressing human APJ receptor. The optimum experimental conditions for the concentrations of GDP, MgCl2, and NaCl in the assay buffer were initially determined. […] Incubation was at RT for 90 min and the microplate was read using a ViewLux™ ultra HTS Microplate Imager (PerkinElmer, Inc.). All the results presented are means of several independent experiments and analyzed by non-linear regression methods using the commercially available program Prism (GraphPad, San Diego, Calif.) providing the EC50 values detailed in Table 27.
# Chain of human APJ receptor (P35414 whole entry): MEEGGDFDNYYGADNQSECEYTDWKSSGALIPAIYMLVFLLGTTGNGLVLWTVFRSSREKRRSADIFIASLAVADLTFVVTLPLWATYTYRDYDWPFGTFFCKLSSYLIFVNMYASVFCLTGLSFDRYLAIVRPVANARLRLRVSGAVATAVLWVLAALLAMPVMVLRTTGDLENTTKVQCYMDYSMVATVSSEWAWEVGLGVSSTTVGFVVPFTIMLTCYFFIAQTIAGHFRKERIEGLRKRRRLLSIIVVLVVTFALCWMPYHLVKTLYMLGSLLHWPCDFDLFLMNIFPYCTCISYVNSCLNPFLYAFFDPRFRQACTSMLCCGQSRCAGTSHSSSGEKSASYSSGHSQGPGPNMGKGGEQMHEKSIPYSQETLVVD
row,SMILES,EC50 [nM]
1,"COc1cccc(-c2nnc(NS(=O)(=O)[C@@H](C)[C@H](C)c3ncc(Cl)cn3)n2[C@@H](C)c2c(C)noc2C)n1 (racemic) [Example 314.0, (2S,3R)-3-(5-chloropyrimidin-2-yl)-N-(4-((R)-1-(3,5-dimethylisoxazol-4-yl)ethyl)-5-(6-methoxypyridin-2-yl)-4H-1,2,4-triazol-3-yl)butane-2-sulfonamide or (2S,3R)-3-(5-chloropyrimidin-2-yl)-N-(4-((S)-1-(3,5-dimethylisoxazol-4-yl)ethyl)-5-(6-methoxypyridin-2-yl)-4H-1,2,4-triazol-3-yl)butane-2-sulfonamide]",33
2,COc1cccc(-c2nnc(NS(=O)(=O)[C@@H](C)[C@@H](OC(C)C)c3ncc(C)cn3)n2[C@@H](C)c2c(C)noc2C)n1 (racemic) [Example 315.0],57
3,"COc1cccc(-c2nnc(NS(=O)(=O)[C@@H](C)[C@@H](OC(C)C)c3ncc(C)cn3)n2[C@@H](C)c2c(C)noc2C)n1 (racemic) [Example 316.0, (1S,2S)-N-(4-((R)-1-(3,5-dimethylisoxazol-4-yl)ethyl)-5-(6-methoxypyridin-2-yl)-4H-1,2,4-triazol-3-yl)-1-isopropoxy-1-(5-methylpyrimidin-2-yl)propane-2-sulfonamide or (1S,2S)-N-(4-((S)-1-(3,5-dimethylisoxazol-4-yl)ethyl)-5-(6-methoxypyridin-2-yl)-4H-1,2,4-triazol-3-yl)-1-isopropoxy-1-(5-methylpyrimidin-2-yl)propane-2-sulfonamide]",21
4,COc1cccc(-c2nnc(NS(=O)(=O)[C@@H](C)[C@H](OC)c3ncc(Cl)cn3)n2[C@H](C)[C@@H]2CCCCO2)n1 (racemic) [Example 319.0],0.44
5,"COC[C@@H](C)n1c(NS(=O)(=O)[C@@H](C)[C@H](C)c2ncc(Cl)cn2)nnc1-c1cccnc1 (single isomer, unassigned) [Example 52.0]",16
6,"COC[C@@H](C)n1c(NS(=O)(=O)[C@@H](C)[C@H](C)c2ncc(Cl)cn2)nnc1-c1cccnc1 (single isomer, unassigned) [Example 53.0]",30
7,"CC[C@@H](C)n1c(NS(=O)(=O)[C@@H](C)[C@H](OC)c2ncc(Cl)cn2)nnc1-c1cccc(OC)n1 (single isomer, unassigned) [Example 54.0]",0.5
8,"CC[C@@H](C)n1c(NS(=O)(=O)[C@@H](C)[C@H](OC)c2ncc(Cl)cn2)nnc1-c1cccc(OC)n1 (single isomer, unassigned) [Example 55.0]",0.4
9,"COc1cccc(-c2nnc(NS(=O)(=O)[C@@H](C)[C@H](OC)c3ncc(Cl)cn3)n2[C@@H]2CC23CC3)n1 (single isomer, unassigned) [Example 90.0]",6.2
10,"COc1cccc(-c2nnc(NS(=O)(=O)[C@@H](C)[C@H](OC)c3ncc(Cl)cn3)n2[C@@H]2CC23CC3)n1 (single isomer, unassigned) [Example 91.0]",38
11,"COc1cccc(-c2nnc(NS(=O)(=O)[C@@H](C)[C@H](OC)c3ncc(Cl)cn3)n2[C@@H]2CCC23CCC3)n1 (single isomer, unassigned) [Example 92.0]",1.2
12,"COc1cccc(-c2nnc(NS(=O)(=O)[C@@H](C)[C@H](OC)c3ncc(Cl)cn3)n2[C@@H]2CCC23CCC3)n1 (single isomer, unassigned) [Example 93.0]",2.3
13,"COc1cccc(-c2nnc(NS(=O)(=O)[C@@H](C)[C@H](OC)c3ncc(Cl)cn3)n2CC[S@+](C)[O-])n1 (single isomer, unassigned) [Example 94.0]",1000
14,"COc1cccc(-c2nnc(NS(=O)(=O)[C@@H](C)[C@H](OC)c3ncc(Cl)cn3)n2CC[S@+](C)[O-])n1 (single isomer, unassigned) [Example 95.0]",26
15,"COc1cnc([C@@H](OC)[C@H](C)S(=O)(=O)Nc2nnc(-c3cccc(OC)n3)n2[C@H]2CC23CC3)cn1 (single isomer, unassigned) [Example 159.0, (1R,2S)-1-methoxy-1-(5-methoxypyrazin-2-yl)-N-(5-(6-methoxypyridin-2-yl)-4-((S)-spiro[2.2]pentan-1-yl)-4H-1,2,4-triazol-3-yl)propane-2-sulfonamide or (1R,2S)-1-methoxy-1-(5-methoxypyrazin-2-yl)-N-(5-(6-methoxypyridin-2-yl)-4-((R)-spiro[2.2]pentan-1-yl)-4H-1,2,4-triazol-3-yl)propane-2-sulfonamide]",550
16,"COc1cnc([C@@H](OC)[C@H](C)S(=O)(=O)Nc2nnc(-c3cccc(OC)n3)n2[C@H]2CC23CC3)cn1 (single isomer, unassigned) [Example 160.0, (1R,2S)-1-methoxy-1-(5-methoxypyrazin-2-yl)-N-(5-(6-methoxypyridin-2-yl)-4-((S)-spiro[2.2]pentan-1-yl)-4H-1,2,4-triazol-3-yl)propane-2-sulfonamide or (1R,2S)-1-methoxy-1-(5-methoxypyrazin-2-yl)-N-(5-(6-methoxypyridin-2-yl)-4-((R)-spiro[2.2]pentan-1-yl)-4H-1,2,4-triazol-3-y)propane-2-sulfonamide]",90
17,"COc1cccc(-c2nnc(NS(=O)(=O)[C@@H](C)[C@H](OC)c3ncc(Cl)cn3)n2[C@@H]2CC[C@H]2OC)n1 (single isomer, unassigned) [Example 161.0, (1R,2S)-1-(5-Chloropyrimidin-2-yl)-1-methoxy-N-(4-((1R,2R)-2-methoxycyclobutyl)-5-(6-methoxypyridin-2-yl)-4H-1,2,4-triazol-3-yl)propane-2-sulfonamide or (1R,2S)-1-(5-chloropyrimidin-2-yl)-1-methoxy-N-(4-((1S,2S)-2-methoxycyclobutyl)-5-(6-methoxypyridin-2-yl)-4H-1,2,4-triazol-3-yl)propane-2-sulfonamide]",2.2
18,"COc1cccc(-c2nnc(NS(=O)(=O)[C@@H](C)[C@H](OC)c3ncc(Cl)cn3)n2[C@@H]2CC[C@H]2OC)n1 (single isomer, unassigned) [Example 162.0, (1R,2S)-1-(5-Chloropyrimidin-2-yl)-1-methoxy-N-(4-((1R,2R)-2-methoxycyclobutyl)-5-(6-methoxypyridin-2-yl)-4H-1,2,4-triazol-3-yl)propane-2-sulfonamide or (1R,2S)-1-(5-chloropyrimidin-2-yl)-1-methoxy-N-(4-((1S,2S)-2-methoxycyclobutyl)-5-(6-methoxypyridin-2-yl)-4H-1,2,4-triazol-3-yl)propane-2-sulfonamide]",2.8
19,"COc1cccc(-c2nnc(NS(=O)(=O)[C@@H](C)[C@H](OC)c3ncc(Cl)cn3)n2[C@@H](C)c2ccno2)n1 (single isomer, unassigned) [Example 212.0, (1R,2S)-1-(5-chloro-2-pyrimidinyl)-1-methoxy-N-(5-(6-methoxy-2-pyridinyl)-4-((1S)-1-(1,2-oxazol-5-yl)ethyl)-4H-1,2,4-triazol-3-yl)-2-propanesulfonamide or (1R,2S)-1-(5-chloro-2-pyrimidinyl)-1-methoxy-N-(5-(6-methoxy-2-pyridinyl)-4-((1R)-1-(1,2-oxazol-5-yl)ethyl)-4H-1,2,4-triazol-3-yl)-2-propanesulfonamide]",0.85
20,"COc1cccc(-c2nnc(NS(=O)(=O)[C@@H](C)[C@H](OC)c3ncc(Cl)cn3)n2[C@@H](C)c2ccno2)n1 (single isomer, unassigned) [Example 213.0, (1R,2S)-1-(5-chloro-2-pyrimidinyl)-1-methoxy-N-(5-(6-methoxy-2-pyridinyl)-4-((1R)-1-(1,2-oxazol-5-yl)ethyl)-4H-1,2,4-triazol-3-yl)-2-propanesulfonamide or (1R,2S)-1-(5-chloro-2-pyrimidinyl)-1-methoxy-N-(5-(6-methoxy-2-pyridinyl)-4-((1S)-1-(1,2-oxazol-5-yl)ethyl)-4H-1,2,4-triazol-3-yl)-2-propanesulfonamide]",0.66
21,"COc1cccc(-c2nnc(NS(=O)(=O)[C@@H](C)[C@H](C)c3ncc(Cl)cn3)n2[C@@H](C)c2ccno2)n1 (single isomer, unassigned) [Example 214.0, (2S,3R)-3-(5-chloro-2-pyrimidinyl)-N-(5-(6-methoxy-2-pyridinyl)-4-((1S)-1-(1,2-oxazol-5-yl)ethyl)-4H-1,2,4-triazol-3-yl)-2-butanesulfonamide or (2S,3R)-3-(5-chloro-2-pyrimidinyl)-N-(5-(6-methoxy-2-pyridinyl)-4-((1R)-1-(1,2-oxazol-5-yl)ethyl)-4H-1,2,4-triazol-3-yl)-2-butanesulfonamide]",2.9
22,"COc1cccc(-c2nnc(NS(=O)(=O)[C@@H](C)[C@H](C)c3ncc(Cl)cn3)n2[C@@H](C)c2ccno2)n1 (single isomer, unassigned) [Example 215.0, (2S,3R)-3-(5-chloro-2-pyrimidinyl)-N-(5-(6-methoxy-2-pyridinyl)-4-((1R)-1-(1,2-oxazol-5-yl)ethyl)-4H-1,2,4-triazol-3-yl)-2-butanesulfonamide or (2S,3R)-3-(5-chloro-2-pyrimidinyl)-N-(5-(6-methoxy-2-pyridinyl)-4-((1S)-1-(1,2-oxazol-5-yl)ethyl)-4H-1,2,4-triazol-3-yl)-2-butanesulfonamide]",2
23,"COc1cccc(-c2nnc(NS(=O)(=O)[C@@H](C)[C@@H](OC(C)C)c3ncc(C)cn3)n2[C@@H](C)c2ccno2)n1 (single isomer, unassigned) [Example 216.0, (1S,2S)-N-(5-(6-methoxy-2-pyridinyl)-4-((1S)-1-(1,2-oxazol-5-yl)ethyl)-4H-1,2,4-triazol-3-yl)-1-(5-methyl-2-pyrimidinyl)-1-(2-propanyloxy)-2-propanesulfonamide or (1S,2S)-N-(5-(6-methoxy-2-pyridinyl)-4-((1R)-1-(1,2-oxazol-5-yl)ethyl)-4H-1,2,4-triazol-3-yl)-1-(5-methyl-2-pyrimidinyl)-1-(2-propanyloxy)-2-propanesulfonamide]",2.2
